In paper PMC12476894, “Identification of α‑Azacyclic Acetamide-Based Inhibitors of P. falciparum Na^+ Pump (PfATP4) with Fast-Killing Asexual Blood-Stage Antimalarial Activity by Phenotypic Screening” (ACS Infectious Diseases, 2025):
Values after ≈ are worked out from the molar mass of the structure shown. Values joined by “and” are separate entries in the source; they are usually repeats but may differ in a detail not shown here. Identical values can stand only once. Like-named read-outs stand apart in the source and are kept apart here.

What was measured:
[1] = system: Dd2 PfATP4^F917L mutant clones; assay: 72 h SYBR Green growth inhibition, 2- or 3-selected Dd2 clones with PfATP4 F917L (Phillips Lab); format: cell-based, Plasmodium falciparum; conditions: for EC50: Plasmodium falciparum
Description: (§1) To confirm the MOA for the α-azacyclic acetamides against P. falciparum and to obtain potential information about whether or not they bind PfATP4 at an overlapping site with that of KAE609, we undertook resistance selections using PfDd2 parasites using the published cycling drug selection method. , α-Azacyclic acetamides 2 and 3 were chosen as representative examples of the pyrrole- and indole-based series, respectively. […] Additional cycles were performed at 20 × EC50, until resistant parasites were detected based on a fold change in EC50 compared to the parental clonal Dd2 line (Table S3). Resistant parasites were detected in the 2-selections in all 4 flasks after 4 pulses and for 3-selections in 3 flasks after 5 pulses. Clonal lines were generated from each flask, and one clone per flask was selected for WGS and EC50 determination (Tables S4 and S5). WGS analysis identified two single point mutations in PfATP4 that were not present in the original clonal Dd2 parasite line (Tables and S4). P412L was found in three of four flasks containing 2-selected resistance clones, and F917L was identified in all three flasks containing 3-selected clones and in the fourth flask containing 2-selected clones (Table S4). PfATP4 mutations identified by the WGS analysis in parasite lines were verified by PCR of the pfatp4 gene, followed by Sanger sequencing (Figures S5, S6 and Table S6). An additional protein coding gene (ribosomal protein S8e) was mutated in the 2-selections. However, this mutation was identified in only one of four sequenced clones and is therefore unlikely to be related to resistance to 2 (Figure S7). All three resistant clones derived from the 3-selections harbored an identical mutation in a gene (pfcpu) encoding a conserved protein of unknown function, which was absent in the parental line (Figure S8).
(§2) ABS P. falciparum 3D7, Dd2 or PfNF54^luc parasites (BEI resources) were cultured in RPMI 1640 medium (Millipore Sigma), supplemented with 25 mM HEPES, 0.5% Albumax-I (Thermo Scientific), 23 mM sodium bicarbonate, 92 μM hypoxanthine, and 10 μg/mL gentamicin sulfate at 37 °C, 5% CO2, using deidentified O^+ red blood cells (BioIVT) as previously described. − Growth inhibition assays were conducted in 96 well plate format using the SYBR Green or luciferase reporter assay depending on the strain with modifications as described , (see Supporting Information for a detailed description). Details for the luciferase reporter assay are described below under the BRRoK assay section.
(§3) EC50 and CC50 values were determined by nonlinear regression performed in GraphPad Prism Version 10. Unless otherwise specified, data were fitted to the log(inhibitor) vs response–variable slope with four parameters equation. […] For mutant cell lines and compound combinations where bottom plateau of zero growth was not reached, the bottom of the curve was defined at 0% based on background values obtained for parental Dd2 from the same study.
(§4) Resistant Dd2 parasites were selected using a high-pressure intermittent selection protocol using a previously described method. Selections were set up using 4 flasks per compound starting with approximately 3 × 10^9 parasites per flask (80 mL per flask, 4% hematocrit, 3% parasitemia at the beginning of each pulse, mostly ring-stage parasites via previous sorbitol synchronization. Pulse 1 and 2 (48 h) were conducted at 10xEC50, and subsequent pulses were conducted at 20xEC50. Parasites cleared within 48 h under these conditions. 3-Selections used a total of 4 pulses, while 2-selections required 5 pulses before resistant parasites emerged (Table S3). Culture media was replenished daily for a week after each pulse, then every 2 days with weekly replenishment of blood. Cultures were monitored by microscopy until recrudescence. Clonal parasites were obtained from each flask by limiting dilution and maintained in drug free RPMI-1640 media prior to being analyzed for EC50 shifts. […]

[2] = system: P. falciparum NF54^luc parasites; assay: 72 h SYBR Green growth inhibition, PfNF54^luc; format: cell-based; conditions: Plasmodium falciparum
[3] = system: P. falciparum NF54^luc parasites; assay: Luciferase reporter (LR) / BRRoK assay, PfNF54^luc; format: cell-based; conditions: Plasmodium falciparum, NF54, Hec50, 72 h
[4] = system: PfD10 attB; assay: 72 h SYBR Green growth inhibition, PfD10 attB; format: cell-based; conditions: Plasmodium falciparum; 72 h SYBR Green assay
[5] = system: Dd2 PfATP4^P412L mutant clones; assay: 72 h SYBR Green growth inhibition, 2-selected Dd2 clones with PfATP4 P412L (Phillips Lab); format: cell-based, Plasmodium falciparum; conditions: for EC50: Plasmodium falciparum
Description: as §1, §2, §3, §4

[6] = Human HepG2 cytotoxicity assay (CellTiter Glo); format: cell-based; conditions: HepG2 cells
[7] = system: Pf3D7 trophozoite-stage parasites, cytosolic pH (pHcyt); cell-based assay for ATP4 inhibition; assay: P. falciparum cytosolic dose response pH assay (BCECF, with concanamycin A); conditions: for EC50: Plasmodium falciparum, read-out: Pf3D7 pH EC50; for effect on parasite cytosolic pH (pHcyt) in presence of CMA (in words): Pf3D7, CMA 50 nM
[8] = system: P. falciparum 3D7 parasites (Pf3D7); assay: 72 h SYBR Green growth inhibition, ABS P. falciparum 3D7 (Phillips Lab); format: cell-based, Plasmodium falciparum; conditions: Plasmodium falciparum, 3D7; 72 h SYBR Green assay; mean ± SEM (n)
[9] = system: P. falciparum NF54^luc parasites; assay: Luciferase reporter (LR) / BRRoK assay, PfNF54^luc; format: cell-based, Plasmodium falciparum; conditions: for EC50: Plasmodium falciparum, NF54, Hec50, luciferase reporter
[10] = system: P. falciparum Dd2 (PfDd2) parasites; assay: 72 h SYBR Green growth inhibition, ABS P. falciparum Dd2 (Phillips Lab); format: cell-based, Plasmodium falciparum; conditions: Plasmodium falciparum, DD2, 72 h, read-out: PfDd2 EC50
[11] = in vitro; format: in vitro ADME; conditions: human liver microsomes, 1 µM compound, 0.4 mg/mL protein
[12] = physchem; conditions: kinetic from dmso stock
[13] = system: PfD10 attB + yDHODH; assay: 72 h SYBR Green growth inhibition, strain expressing yeast DHODH; format: cell-based; conditions: Plasmodium falciparum, read-out: PfD10 attB + yDHODH EC50, 72 h SYBR Green assay
[14] = system: Pf3D7 trophozoites, pHcyt (PfATP4 and other plasma membrane transporters); design: method as in previous study; conditions: all conditions, versus solvent control 0.1% DMSO; ref previous study; cited from earlier work
[15] = system: Dd2^P412L (PfATP4^P412L); assay: Drug susceptibility assay for cross-resistance profiling (Fidock Lab), P412L; format: cell-based, Plasmodium falciparum; conditions: Table 3 data set; for EC50: Plasmodium falciparum, DD2, 15-selected line
[16] = system: Dd2-B2 (PfATP4^WT); assay: Drug susceptibility assay for cross-resistance profiling (Fidock Lab), parental line; format: cell-based, Plasmodium falciparum; conditions: for EC50: Plasmodium falciparum
[17] = system: Dd2^L350H (PfATP4^L350H); assay: Drug susceptibility assay for cross-resistance profiling (Fidock Lab), L350H; format: cell-based, Plasmodium falciparum; conditions: Table 3 data set; for EC50: Plasmodium falciparum, DD2, 15-selected line
[18] = system: isolated Pf3D7 trophozoites, [Na+]cyt; assay: Measurement of P. falciparum cytosolic Na+ concentration (SBFI); format: cell-based, Plasmodium falciparum; conditions: 50 nM
Description: Measurements were carried out in 96 well plates (excitation wavelengths: 340 and 380 nm; emission wavelength: 515 nm), as described previously. Fluorescence ratio values (340 nm/380 nm) were converted to [Na^+]cyt using a calibration procedure in which parasites were suspended in solutions of varying [Na^+] containing ionophores.

[19] = DD2, read-out: EC50, 2-resistant Flask 1 Clone B6
[20] = DD2, read-out: EC50, 3-resistant Flask 2 Clone D10
[21] = DD2, read-out: EC50, 3-resistant Flask 3 Clone D8
[22] = DD2, read-out: EC50, 3-resistant Flask 4 Clone B3
[23] = DD2, read-out: EC50, 3-selected flask #3 clone D8
[24] = 72 h SYBR Green assay, read-out: PfNF54^luc EC50
[25] = DD2, read-out: EC50, 2-resistant Flask 2 Clone F9
[26] = DD2, read-out: EC50, 2-resistant Flask 3 Clone F5
[27] = DD2, read-out: EC50, 2-resistant Flask 4 Clone E10
[28] = DD2, read-out: EC50, 2-selected flask #3 clone F5
[29] = DD2, 72 h, read-out: EC50, Dd2-B2

## COc1ccc(Cl)cc1NC(=O)Cn1cccc1-c1nnc(C2CC2)o1 [compound 1, N-(5-chloro-2-methoxyphenyl)-2-(2-(5-cyclopropyl-1,3,4-oxadiazol-2-yl)-1H-pyrrol-1-yl)acetamide]
[1]; [19]
  EC50: > 10 µM
[1]; [20]
  EC50: > 10 µM
[1]; [21]
  EC50: > 10 µM
[1]; [22]
  EC50: > 10 µM
[1]; [23]
  EC50: 12 ± 0.46 µM
[1]
  Fold EC50 change compared to WT Dd2, 3-selected flask #3 clone D8: 4.6 fold
[2]; [24]
  EC50: 3 ± 0.93 µM
[3]
  EC50: 1.6 ± 0.075 µM
[4]
  EC50: 2.9 µM
[5]; [25]
  EC50: 7.5 ± 2.4 µM
[5]; [26]
  EC50: 7.6 ± 2 µM
[5]; [27]
  EC50: 9.4 ± 2.5 µM
[5]; [28]
  EC50: 8.3 ± 1.1 µM
[5]
  Fold EC50 change compared to WT Dd2, 2-selected flask #3 clone F5: 3.4 fold
[6]
  CC50 at 96 h: > 50 µM
[7]
  EC50: 4.5 ± 2 µM
[8]
  EC50: 2.5 ± 0.26 µM
[9]; 6 h
  EC50: 3.2 ± 0.016 µM
[10]
  EC50: 2.4 ± 0.13 µM
[11]
  microsomal CLint: 279 µL/min/mg
[12]; pH 2, simulated gastric fluid
  solubility: 25 µM (≈ 9.32 µg/mL)
[12]; pH 6.5, aqueous buffer
  solubility: 12.5 µM (≈ 4.66 µg/mL)
[13]
  EC50: 3.2 µM

## Cc1cc(Nc2ccc(S(F)(F)(F)(F)F)cc2)n2nc(C(C)(F)F)nc2n1 [DSM265, reference compound]
[1]; [23]
  EC50: 0.0073 ± 0.00013 µM
[1]
  Fold EC50 change compared to WT Dd2, 3-selected flask #3 clone D8: 0.85 fold
[2]; [24]
  EC50: 0.0086 ± 0.0003 µM
[3]
  EC50: 0.0068 ± 0.00069 µM
[4]
  EC50: 0.012 µM
[5]; [28]
  EC50: 0.0085 ± 0.0014 µM
[5]
  Fold EC50 change compared to WT Dd2, 2-selected flask #3 clone F5: 0.99 fold
[7]
  effect on parasite cytosolic pH (pHcyt) in presence of CMA (in words): no impact on pH
  EC50: > 0.4 µM
[8]
  EC50: 0.0066 ± 0.00036 µM
[9]; 6 h, 47x to 0.04x EC50
  BRRoK assay, luciferase activity after 6 h treatment (kill rate, in words): did not reduce parasite levels in the 6 h treatment window
[9]; 6 h
  EC50: > 0.24 µM
[10]
  EC50: 0.0086 ± 0.00036 µM

## CCN(CC)CCCC(C)Nc1ccnc2cc(Cl)ccc12 (stereo not shown) [chloroquine]
[14]
  pH fingerprint traces (in words): overlapped with those of the solvent control

## C[C@H]1[C@@H](O)O[C@@H]2O[C@@]3(C)CC[C@H]4[C@H](C)CC[C@@H]1[C@@]24OO3 [DHA, dihydroartemisinin, reference compound]
[15]
  EC50: 0.0027 ± 0.00015 µM
  EC50 fold-change vs Dd2-B2, Dd2^P412L: 1.4 fold
[16]; [29]
  EC50: 0.002 ± 9e-05 µM
[17]
  EC50: 0.0024 ± 0.00023 µM
  EC50 fold-change vs Dd2-B2, Dd2^L350H: 1.2 fold
[14]
  pH fingerprint traces (in words): overlapped with those of the solvent control

## C[C@H]1Cc2c([nH]c3cc(Cl)c(F)cc23)[C@@]2(N1)C(=O)Nc1ccc(Cl)cc12 [KAE609, cipargamin, reference compound]
[15]
  EC50: 0.011 ± 0.0007 µM
  EC50 fold-change vs Dd2-B2, Dd2^P412L: 8.5 fold
[16]; [29]
  EC50: 0.0013 ± 0.0001 µM
[16]; DD2, read-out: EC50, Dd2-B2
  EC50: 0.0021 µM
[16]; parent, Table S8
  Fold change, Dd2-B2: 1 fold
[1]; [19]
  EC50: 0.012 ± 0.00098 µM
[1]; [20]
  EC50: 0.012 ± 0.00034 µM
[1]; [21]
  EC50: 0.012 ± 0.00097 µM
[1]; [22]
  EC50: 0.014 ± 0.0009 µM
[1]; [23]
  EC50: 0.012 ± 0.00058 µM
[1]
  Fold EC50 change compared to WT Dd2, 3-selected flask #3 clone D8: 11 fold
[5]; [25]
  EC50: 0.014 ± 0.0014 µM
[5]; [26]
  EC50: 0.012 ± 0.0014 µM
[5]; [27]
  EC50: 0.014 ± 0.0011 µM
[5]; [28]
  EC50: 0.013 ± 0.0011 µM
[5]
  Fold EC50 change compared to WT Dd2, 2-selected flask #3 clone F5: 11 fold
[7]; Pf3D7, 72 h SYBR Green vs pH assay
  difference between pH EC50 and growth inhibition EC50: ≤ 3.2 fold
[7]
  effect on parasite cytosolic pH (pHcyt) in presence of CMA (in words): increase in pHcyt
  EC50: 0.003 ± 0.0021 µM
[8]
  EC50: 0.001 ± 3.8e-05 µM
[10]
  EC50: 0.0012 ± 8.7e-05 µM
[17]
  EC50: 0.0048 ± 0.0003 µM
  EC50 fold-change vs Dd2-B2, Dd2^L350H: 3.7 fold and 4- to 6 fold
[18]
  increase in [Na+]cyt (in words): increase in [Na^+]cyt

## O=C1C(O)=C([C@H]2CC[C@H](c3ccc(Cl)cc3)CC2)C(=O)c2ccccc21 [atovaquone]
[14]
  pH fingerprint traces (in words): overlapped with those of the solvent control

## C[C@@H]1CC[C@H]2[C@@H](C)C(=O)O[C@@H]3O[C@@]4(C)CC[C@@H]1[C@]32OO4 [ART, artemisinin, reference compound]
[2]; [24]
  EC50: 0.01 µM
[2]; 72 h SYBR Green, as listed in supplementary methods, read-out: EC50 values used for BRRoK concentration range (72h SYBR Green assay vs PfNF54luc)
  EC50: 0.0097 µM
[3]
  EC50: 0.004 µM
[9]; 6 h
  EC50: 0.08 µM
[9]; higher at 6 h
  6 h EC50 relative to 72 h SYBR Green and LR EC50: 10–20 fold
